The source of these data is US20250042889A1, “3CLPRO PROTEASE INHIBITOR” (SHANGHAI QILU PHARMACEUTICAL RESEARCH AND DEVELOPMENT …, priority 2021, published 2025).

Bounds are passed on as bounds.

The target in the first assay is SARS-COV-2 3CLpro/Mpro protease (Severe acute respiratory syndrome coronavirus 2 (2019-nCoV) (SARS-CoV-2), UniProt P0DTD1). The assay is described as follows: Inhibitory effect on SARS-COV-2 3CLpro/Mpro protease by fluorescence resonance energy transfer. Particulars: IC50 (nM), Inhibition on SARS-CoV-2 3CLpro/Mpro protease, activity intervals A-D. Format: biochemical.
For `CNc1cncc(C(=O)N2CCC[C@@H](Nc3c(C(=O)N4C5CCCC4CCC5)cc(Br)cc3[N+](=O)[O-])C2)c1` [Example 292], the IC50 was in the range of 10 to 50 nM.

The same assay, now with this note: activity intervals A-D, read-out: IC50 (nM), Inhibition on SARS-CoV-2 3CLpro/Mpro protease.
For the compound `O=C(c1cc(Br)cc([N+](=O)[O-])c1N[C@@H]1CCCN(C(=O)c2cc(=O)[nH]c3ccccc23)C1)N1CCCCC1` [Example 116], the IC50 was less than 10 nM.

`C#C[C@@H]1CN(C(=O)c2cc(Br)cc([N+](=O)[O-])c2N[C@@H]2CCCN(C(=O)c3cncc(NC)c3)C2)CCO1` [Example 346]: the IC50 was 10 to 50 nM.

With `Cc1cc(C(=O)N2CC(Nc3c(C(=O)N4CCN(C5CCCCC5)CC4)cc(Br)cc3[N+](=O)[O-])C(F)(F)C2)cc(=O)[nH]1` (stereo not drawn) [Example 300], the IC50 was in the range of 10 to 50 nM.

`O=C(c1cncc(Br)c1)N1CC[C@@H](Nc2c(C(=O)N3CCCCC3)cc(Br)cc2C(F)(F)F)C1` [Example 47]: the IC50 lay in the range of 10 to 50 nM.

As for `CNc1cncc(C(=O)N2C[C@H](Nc3c(C(=O)N4C[C@@H](C)O[C@@H](C)C4)cc(Br)cc3[N+](=O)[O-])C[C@H]2C(=O)NC2C[C@@H](C)O[C@@H](C)C2)c1` (stereo partly drawn) [Example 433], the IC50 lay within 100 to 200 nM.

Take `CNc1cncc(C(=O)N2C[C@H](Nc3c(-c4nnn(C)n4)cc(Br)cc3[N+](=O)[O-])[C@@H](OC)C2)c1` [Example 440, ((3S,4S)-3-((4-bromo-2-(2-methyl-2H-tetrazol-5-yl)-6-nitrophenyl)amino)-4-methoxypyrrolidin-1-yl)(5-(methylamino)pyridin-3-yl)methanone]: the IC50 fell in the range of 50 to 100 nM.

On to `CNc1cncc(C(=O)N2CCC[C@@H](Nc3c(C(=O)N4CCC5(CCNCC5)CC4)cc(Br)cc3[N+](=O)[O-])C2)c1` [Example 272], for which the IC50 was 10 to 50 nM.

In the case of `O=C(c1cccnc1)N1CCC[C@@H](Nc2c(C(=O)N3CCCCC3)cc(Br)cc2[N+](=O)[O-])C1` [Example 4, (R)-(5-bromo-2-((1-nicotinoylpiperidin-3-yl)amino)-3-nitrophenyl)(piperidin-1-yl)methanone], the IC50 fell in the range of 50 to 100 nM.

Take `CNc1cncc(C(=O)N2CCC[C@@H](Nc3c(C(=O)N4[C@H](C)COC[C@@H]4C)cc(Br)cc3[N+](=O)[O-])C2)c1` [Example 359]: the IC50 lay in the range of 10 to 50 nM.

For the compound `CNc1cncc(C(=O)N2C[C@H](Nc3c(C(=O)N4C[C@@H](C)O[C@@H](C)C4)cc(Br)cc3[N+](=O)[O-])C[C@H]2C(=O)N2CC(F)(F)C2)c1` [Example 382], the IC50 fell in the range of 50 to 100 nM.

Regarding `CNc1cncc(C(=O)N2CCC[C@@H](Nc3c(C(=O)N4CCc5sccc5C4)cc(Br)cc3[N+](=O)[O-])C2)c1` [Example 277], the IC50 is 10 to 50 nM.

In the case of `[2H]C([2H])([2H])Nc1cncc(C(=O)N2C[C@H](Nc3c(C(=O)N4C[C@@H](C)O[C@@H](C)C4)cc(Br)cc3[N+](=O)[O-])[C@@H](OC([2H])([2H])[2H])C2)c1` [Example 451], the IC50 fell in the range of 10 to 50 nM.

Consider `O=C(c1cncc(Br)c1)N1CCC[C@@H](Nc2c(C(=O)N3CC4CC4C3)cc(Br)cc2[N+](=O)[O-])C1` (stereo partly drawn) [Example 44], for which the IC50 was less than 10 nM.

For the compound `CNc1cncc(C(=O)NC[C@@H](COC)Nc2c(C(=O)N3CCCCC3)cc(Br)cc2[N+](=O)[O-])c1` [Example 301], the IC50 is 50 to 100 nM.

As for `[2H]C1([2H])CC[C@@H](Nc2c(C(=O)N3C[C@@H](C)O[C@@H](C)C3)cc(Br)cc2[N+](=O)[O-])C([2H])([2H])N1C(=O)c1cncc(NC)c1` [Example 354], the IC50 lay in the range of 10 to 50 nM.

Consider `CNc1cncc(C(=O)N2CCC[C@@H](Nc3c(C(=O)N4CCN(C)CC4)cc(Br)cc3[N+](=O)[O-])C2)c1` [Example 29, (R)-(5-bromo-2-((1-(5-(methylamino)nicotinoyl)piperidin-3-yl)amino)-3-nitrophenyl)(4-methylpiperazin-1-yl)methanone], for which the IC50 lay within 10 to 50 nM.

Consider `Nc1cncc(C(=O)N2CCC[C@@H](Nc3c(C(=O)N4CCOCC4)cc(Br)cc3[N+](=O)[O-])C2)c1` [Example 114], for which the IC50 lay in the range of 10 to 50 nM.

As for `CNc1cncc(C(=O)N2C[C@H](Nc3c(C(=O)N4CCCC(F)(F)C4)cc(Br)cc3[N+](=O)[O-])C[C@H]2C(=O)Nc2nn(C)cc2Br)c1` [Example 411], the IC50 fell in the range of 50 to 100 nM.

Take `COCCN1CCN(C(=O)c2cc(Br)cc([N+](=O)[O-])c2N[C@@H]2CCCN(C(=O)[C@H]3CC(=O)N[C@@H](C)C3)C2)CC1` [Example 249]: the IC50 is 10 to 50 nM.

Turning to `O=C(NN1CCOCC1)c1cc(Br)cc([N+](=O)[O-])c1N[C@@H]1CCCN(C(=O)c2cncc(I)c2)C1` [Example 137], the IC50 was 10 to 50 nM.

As to `Nc1cncc(C(=O)N2CCC[C@@H](Nc3c(C(=O)N4CCCCC4)cc(Br)cc3[N+](=O)[O-])C2)c1` [Example 42], the IC50 lay in the range of 10 to 50 nM.

`CNc1cncc(C(=O)N2CC(Nc3c(C(=O)N4CCN(CCOC)CC4)cc(Br)cc3[N+](=O)[O-])C(F)(F)C2)c1` (stereo not drawn) [Example 298]: the IC50 was in the range of 10 to 50 nM.

With `O=C(c1cncc(Br)c1)N1CC[C@@H](Nc2c(C(=O)N3CCC(F)(F)CC3)cc(Br)cc2C(F)(F)F)C1` [Example 69], the IC50 lay in the range of 50 to 100 nM.

On to `CNc1cncc(C(=O)N2CCC[C@@H](Nc3c(C(=O)N4CC(N)CC(F)(F)C4)cc(Br)cc3[N+](=O)[O-])C2)c1` (stereo partly drawn) [Example 263], for which the IC50 was in the range of 10 to 50 nM.

For `CNc1cncc(C(=O)N2C[C@H](Nc3c(C(=O)N4C[C@@H](C)O[C@@H](C)C4)cc(Br)cc3[N+](=O)[O-])C(C)(C)C2)c1` [Example 162], the IC50 lay within 10 to 50 nM.

`O=C(c1cncc(Br)c1)N1CCC[C@@H](Nc2c(C(=O)N3CCCCC3)cc(Br)cc2[N+](=O)[O-])C1` [Example 5, (R)-(5-bromo-2-((1-(5-bromonicotinoyl)piperidin-3-yl)amino)-3-nitrophenyl)(piperidin-1-yl)methanone]: the IC50 was less than 10 nM.

Regarding `CNc1cncc(C(=O)N2C[C@H](Nc3c(C(=O)N4C[C@@H](C)O[C@@H](C)C4)cc(Br)cc3[N+](=O)[O-])C[C@H]2c2nnco2)c1` [Example 396], the IC50 is 50 to 100 nM.

Regarding `O=C(c1cncc(Br)c1)N1CCC[C@@H](Nc2c(C(=O)N3CCCCC3)cc(Br)cc2C(F)(F)F)C1` [Example 66], the IC50 fell in the range of 10 to 50 nM.

Regarding `C[C@@H]1CN(C(=O)c2cc(Br)cc([N+](=O)[O-])c2N[C@@H]2CCCN(C(=O)[C@H]3CC(=O)N[C@@H](C)C3)C2)C[C@H](C)O1` [Example 254], the IC50 fell in the range of 10 to 50 nM.

Take `O=C(N[C@H]1CCOC[C@H]1Nc1c(C(=O)N2CCCCC2)cc(Br)cc1[N+](=O)[O-])c1cncc2ccccc12` [Example 205]: the IC50 was less than 10 nM.

In the case of `O=C(c1cncc(Br)c1)N1CCC[C@@H](Nc2c(C(=O)N3CCCC3)cc(Br)cc2[N+](=O)[O-])C1` [Example 65], the IC50 lay within 10 to 50 nM.

In the case of `O=C(c1cc(Br)cc([N+](=O)[O-])c1N[C@@H]1CCN(C(=O)c2cncc3ccccc23)C1)N1CCCCC1` [Example 12, (R)-(5-bromo-2-((1-(isoquinolin-4-carbonyl)pyrrolidin-3-yl)amino)-3-nitrophenyl)(piperidin-1-yl)methanone], the IC50 is 10 to 50 nM.

With `O=C(c1cc(Br)cc([N+](=O)[O-])c1N[C@@H]1CCCN(C(=O)c2cncc3ccccc23)C1)N1CCNCC1` [Example 10], the IC50 lay within 10 to 50 nM.

In the case of `O=C(N[C@H]1CCCC[C@H]1Nc1c(C(=O)N2CC3(CCOCC3)C2)cc(Br)cc1[N+](=O)[O-])c1cncc2cc(Cl)ccc12` [Example 124], the IC50 was in the range of 10 to 50 nM.

Regarding `C[C@@H]1CN(C(=O)c2cc(Br)cc([N+](=O)[O-])c2N[C@@H]2CCCN(C(=O)c3cc(=O)[nH]c4ccccc34)C2)CCO1` [Example 140], the IC50 lay in the range of 10 to 50 nM.

Regarding `CNc1cncc(C(=O)N2CCC[C@@H](Nc3c(C(=O)N4CC(O)CC(F)(F)C4)cc(Br)cc3[N+](=O)[O-])C2)c1` (stereo partly drawn) [Example 303], the IC50 lay within 10 to 50 nM.

As for `O=C(c1cncc(I)c1)N1CCC[C@@H](Nc2c(C(=O)N3CCC(F)(F)CC3)cc(Br)cc2[N+](=O)[O-])C1` [Example 75], the IC50 was less than 10 nM.

As for `O=C(c1cncc(Br)c1)N1CC[C@@H](Nc2c(C(=O)N3CCCCC3)cc(Br)cc2[N+](=O)[O-])C1` [Example 64], the IC50 was in the range of 10 to 50 nM.

Regarding `CNc1cncc(C(=O)N2C[C@H](Nc3c(C(=O)N4C[C@@H](C)O[C@@H](C)C4)cc(Br)cc3[N+](=O)[O-])C[C@H]2C(=O)NCc2ccnc(C(F)F)c2)c1` [Example 431], the IC50 was 50 to 100 nM.

`O=C(c1cncc(C(F)(F)F)c1)N1CCC[C@@H](Nc2c(C(=O)N3CCC(F)(F)CC3)cc(Br)cc2[N+](=O)[O-])C1` [Example 70]: the IC50 was in the range of 10 to 50 nM.

Turning to `CNc1cncc(C(=O)N2C[C@H](Nc3c(C(=O)N4C[C@@H](C)O[C@@H](C)C4)cc(Br)cc3[N+](=O)[O-])C[C@H]2C(=O)N2CCc3nn(C)cc3C2)c1` [Example 365], the IC50 lay within 50 to 100 nM.

With `CNc1cncc(C(=O)N2C[C@H](Nc3c(C(=O)N4C[C@@H](C)O[C@@H](C)C4)cc(Br)cc3[N+](=O)[O-])C[C@H]2C(=O)NCc2ccncc2)c1` [Example 395], the IC50 lay within 50 to 100 nM.

As to `O=C(c1cncc(I)c1)N1CC(Nc2c(C(=O)N3CCCCC3)cc(Br)cc2[N+](=O)[O-])C(F)(F)C1` (stereo not drawn) [Example 165], the IC50 was in the range of 10 to 50 nM.

For the compound `CNc1cncc(C(=O)N2CCC[C@@H](Nc3c(C(=O)N4CCO[C@@H](C)C4)cc(Br)cc3[N+](=O)[O-])C2)c1` [Example 219], the IC50 fell in the range of 10 to 50 nM.

`Cc1cc(C(=O)N2CCC[C@@H](Nc3c(C(=O)N4CCCCC4)cc(Br)cc3[N+](=O)[O-])C2)cc(=O)[nH]1` [Example 149]: the IC50 lay within 10 to 50 nM.

`CNc1cncc(C(=O)N2C[C@H](Nc3c(C(=O)N4CCCCC4)cc(Br)cc3[N+](=O)[O-])C(F)(F)C2)c1` [Example 81]: the IC50 fell in the range of 10 to 50 nM.

Turning to `CNc1cncc(C(=O)N2C[C@H](Nc3c(C(=O)N4C[C@@H](C)O[C@@H](C)C4)cc(Br)cc3[N+](=O)[O-])[C@@H](OCc3ccc(OC)nc3)C2)c1` [Example 456, (5-Bromo-2-(((3S,4S)-4-((6-methoxypyridin-3-yl)methoxy)-1-(5-methylamino)nicotinoyl)pyrrolidin-3-amino)-3-nitrophenyl)((2S,6R)-2,6-dimethylmorpholinyl)methanone], the IC50 was 10 to 50 nM.
